This passage reports IC50, viability and Activity results from ChEMBL document CHEMBL5352386 (Eur J Med Chem, 2022).

Active and inactive are the calls of the source. No cut-off for these calls is given here.

In series [1] the target is Cholinesterase (Equus caballus, UniProt P81908). Description: Inhibition of equine serum BuChE using butyrylthiocholine iodide as substrate incubated for 10 mins followed by substrate addition by DTNB-reagent based Ellman's colorimetric assay. (Ellman's reagent forms a yellow product with free thiols.)
The nature of series [2]: Cytotoxicity against mouse BV-2 cells assessed as inhibition of cell growth measured after 24 hrs by MTT assay. It counts as toxicity, cell-based. On the technique in general: Tetrazolium dyes change colour on reduction, which living cells bring about.
Series [3] deals with PC-12. Description: Cytotoxicity against rat PC12 cells assessed as survival rate at 100 uM measured after 24 hrs by MTT assay relative to control. As to conditions: PC-12, 24 h, read-out: Survival.
Series [4] has as its target Cholinesterase (Homo sapiens, UniProt P06276). Description: Inhibition of human BuChE using butyrylthiocholine iodide as substrate incubated for 10 mins followed by substrate addition by DTNB-reagent based Ellman's colorimetric assay.
The subject of series [5] is L02. Description: Cytotoxicity against human L02 cells assessed as survival rate at 100 uM measured after 24 hrs by MTT assay relative to control. It counts as functional. As to conditions: read-out: Survival.
The test system of series [6] is SH-SY5Y. Description: Cytotoxicity against human SH-SY5Y cells assessed as inhibition of cell growth measured after 24 hrs by MTT assay. It is filed as functional, cell-based.
The nature of series [7]: Cytotoxicity against mouse BV-2 cells assessed as survival rate at 100 uM measured after 24 hrs by MTT assay relative to control. As to conditions: read-out: Survival. It is filed as toxicity, cell-based.
Series [8] has as its system SH-SY5Y. Description: Cytotoxicity against human SH-SY5Y cells assessed as survival rate at 2.5 uM measured after 24 hrs by MTT assay relative to control. It is filed as functional. As to conditions: read-out: Survival.
Series [9] deals with PC-12. Description: Cytotoxicity against rat PC12 cells assessed as inhibition of cell growth measured after 24 hrs by MTT assay. It counts as functional, cell-based. As to conditions: PC-12, 24 h.
For series [10], the system named is L02. Description: Cytotoxicity against human L02 cells assessed as inhibition of cell growth measured after 24 hrs by MTT assay. It is filed as functional, cell-based. As to conditions: L02, 24 h.
In series [11] the test system is SH-SY5Y. Description: Cytotoxicity against human SH-SY5Y cells assessed as survival rate at 100 uM measured after 24 hrs by MTT assay relative to control. It is filed as functional. Particulars: read-out: Survival.
Series [12] deals with L02. Description: Cytotoxicity against human L02 cells assessed as survival rate at 2.5 uM measured after 24 hrs by MTT assay relative to control. It is filed as functional. Particulars: read-out: Survival.
The subject of series [13] is Mus musculus. Description: Neuroprotective activity against Abeta42 induced cognition impairement in AD mouse model assessed as reduction in latency time to platform at 10 mg/kg, po measured after 14 days by Morris water maze analysis. It is filed as functional, organism-based. As to conditions: time 14.0 day.
Series [14] concerns Mus musculus. Description: Neuroprotective activity against Abeta42 induced cognition impairement in AD mouse model assessed as reduction in confusion of escape trajectory at 10 mg/kg, po measured after 14 days. It is filed as functional, organism-based. As to conditions: time 14.0 day.

Chain of Cholinesterase (Homo sapiens, UniProt P06276) (P06276 whole entry): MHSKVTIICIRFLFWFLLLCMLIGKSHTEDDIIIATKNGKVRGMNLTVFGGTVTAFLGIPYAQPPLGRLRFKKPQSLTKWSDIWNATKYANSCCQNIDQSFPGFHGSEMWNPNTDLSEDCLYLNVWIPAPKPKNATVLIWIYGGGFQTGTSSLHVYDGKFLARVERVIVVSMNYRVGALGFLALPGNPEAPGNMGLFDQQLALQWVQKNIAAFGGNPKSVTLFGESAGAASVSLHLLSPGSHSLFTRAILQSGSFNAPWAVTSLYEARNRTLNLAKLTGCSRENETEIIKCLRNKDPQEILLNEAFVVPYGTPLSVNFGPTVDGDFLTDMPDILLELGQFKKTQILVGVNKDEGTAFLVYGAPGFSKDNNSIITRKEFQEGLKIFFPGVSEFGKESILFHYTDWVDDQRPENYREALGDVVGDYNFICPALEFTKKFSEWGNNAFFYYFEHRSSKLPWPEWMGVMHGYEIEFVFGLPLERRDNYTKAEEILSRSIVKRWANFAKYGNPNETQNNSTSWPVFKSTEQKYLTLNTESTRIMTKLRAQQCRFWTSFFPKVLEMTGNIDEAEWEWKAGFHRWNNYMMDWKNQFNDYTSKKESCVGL
Chain of Cholinesterase (Equus caballus, UniProt P81908) (P81908 whole entry): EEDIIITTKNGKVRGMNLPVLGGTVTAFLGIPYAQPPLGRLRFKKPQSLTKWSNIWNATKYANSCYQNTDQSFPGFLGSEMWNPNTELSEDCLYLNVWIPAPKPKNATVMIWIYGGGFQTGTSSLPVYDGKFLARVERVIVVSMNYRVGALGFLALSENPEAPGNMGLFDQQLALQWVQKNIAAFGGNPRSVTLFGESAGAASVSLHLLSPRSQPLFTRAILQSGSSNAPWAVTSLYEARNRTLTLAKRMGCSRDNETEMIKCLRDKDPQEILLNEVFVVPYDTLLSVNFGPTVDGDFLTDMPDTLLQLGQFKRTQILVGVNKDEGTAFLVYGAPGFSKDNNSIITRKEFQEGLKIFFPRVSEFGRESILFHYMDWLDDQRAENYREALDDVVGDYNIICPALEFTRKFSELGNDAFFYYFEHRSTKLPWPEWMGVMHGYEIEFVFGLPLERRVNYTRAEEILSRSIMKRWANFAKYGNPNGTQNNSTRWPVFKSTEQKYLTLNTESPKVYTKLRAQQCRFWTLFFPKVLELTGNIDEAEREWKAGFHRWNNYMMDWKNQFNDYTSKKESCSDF

For `COC(=O)c1cc(NC(=O)Cn2c(-c3nonc3N)nc3ccccc32)cc(C(=O)OC)c1`, the results for the IC50 against Cholinesterase [1], against Cholinesterase [4] and in the series on SH-SY5Y [6] were 1.48 nM, 222 nM and 58 µM, respectively. The IC50 (usually the concentration that gives 50% inhibition) at 24 h in series [2] was 40.5 µM. Also, the viability at 100 µM in the series with PC-12 [3] is 50.5%; in the series on L02 [5], 84%.
In the case of `Nc1nonc1-c1nc2ccccc2n1CC(=O)Nc1cc(F)cc(Cl)c1`, the values for the IC50 at Cholinesterase [1] and against Cholinesterase [4] were 5.32 nM and 155 nM, respectively. Moreover, in [7], the viability at 24 h, 100 µM amounted to 111%. Further, the values for the viability at 100 µM with PC-12 [3] and in the series on L02 [5] were 58% and 91.7%, respectively. Moreover, the viability at 2.5 µM with SH-SY5Y [8] stood at 28.1%.
For the compound `Nc1nonc1-c1nc2ccccc2n1CC(=O)Nc1cc(Cl)cc(Br)c1`, the IC50 with PC-12 [9] turned out to be 37.8 µM; against Cholinesterase [1] it was 1.61 nM; against Cholinesterase [4], 75.7 nM. The viability at 24 h, 100 µM in series [7] worked out at 59.9%. In addition, in the series on L02 [5], the viability at 100 µM came out at 80.3%. Also, in the series on SH-SY5Y [8], the viability at 2.5 µM came out at 43.6%.
As to `Nc1nonc1-c1nc2ccccc2n1CC(=O)Nc1cc(Br)cc(Br)c1`, the IC50 is 6.56 µM with PC-12 [9], 3.84 nM against Cholinesterase [1] and 27.9 nM against Cholinesterase [4]. In addition, the viability at 24 h, 100 µM in [7] was determined as 52%. Also, the viability at 100 µM in the series with L02 [5] was found to be 85.3%. The viability at 2.5 µM in the series with SH-SY5Y [8] is 27.3%.
As to `Nc1nonc1-c1nc2ccccc2n1CC(=O)Nc1cc(Cl)cc(C(F)(F)F)c1`, the IC50 stood at 46.2 µM in the series with PC-12 [9]; 2.63 nM against Cholinesterase [1]; 2.48 µM in the series on L02 [10]; 113 nM on Cholinesterase [4]; 10.6 µM in the series on SH-SY5Y [6]. Further, in series [7], the viability at 24 h, 100 µM came to 90%.
Consider `Nc1nonc1-c1nc2ccccc2n1CC(=O)Nc1cc(Br)cc(C(F)(F)F)c1`, for which the IC50 turned out to be 11.4 µM with PC-12 [9], 4.21 nM against Cholinesterase [1] and 12.4 nM against Cholinesterase [4]. The viability at 24 h, 100 µM in [7] was 56.3%. In addition, the viability at 100 µM in the series on L02 [5] came out at 75.8%. Besides, the viability at 2.5 µM in the series on SH-SY5Y [8] came out at 44.7%.
On to `Nc1nonc1-c1nc2ccccc2n1CC(=O)Nc1ccc([N+](=O)[O-])c(Cl)c1`, for which the IC50 is 27.8 µM in the series on PC-12 [9], 11 nM against Cholinesterase [1], 749 nM on Cholinesterase [4] and 24.9 µM with SH-SY5Y [6]. In series [7], the viability at 24 h, 100 µM amounted to 52.6%. For the same compound, the viability at 100 µM in the series with L02 [5] is 52.6%.
On to `Nc1nonc1-c1nc2ccccc2n1CC(=O)Nc1ccc([N+](=O)[O-])c(Br)c1`, for which the values for the IC50 against Cholinesterase [1], with L02 [10] and against Cholinesterase [4] were 33.7 nM, 5.49 µM and 730 nM, respectively. Besides, the IC50 at 24 h in series [2] came out at 5.49 µM. Further, the viability at 100 µM amounted to 51.4% with PC-12 [3] and 70.5% in the series with SH-SY5Y [11].
`Nc1nonc1-c1nc2ccccc2n1CC(=O)Nc1cc(F)cc(F)c1`: the IC50 came out at 58 nM at Cholinesterase [1] and 3680 nM at Cholinesterase [4]. The IC50 at 24 h in series [2] stood at 25.4 µM. The viability at 100 µM in the series on PC-12 [3] was 84.4%; in the series with L02 [5], 60.6%; in the series with SH-SY5Y [11], 56.2%.
In the case of `Nc1nonc1-c1nc2ccccc2n1CC(=O)Nc1cc(C(F)(F)F)cc(C(F)(F)F)c1`, the results for the IC50 against Cholinesterase [1] and at Cholinesterase [4] were 7.72 nM and 935 nM, respectively. Moreover, in series [7], the viability at 24 h, 100 µM came out at 100%. The viability at 100 µM in the series with PC-12 [3] worked out at 50.2%; with L02 [5] it was 74.2%. For the same compound, the viability at 2.5 µM in the series with SH-SY5Y [8] amounted to 46.1%.
For `N#Cc1cc(Cl)cc(NC(=O)Cn2c(-c3nonc3N)nc3ccccc32)c1`, the IC50 against Cholinesterase [1] amounted to 2.04 nM; at Cholinesterase [4] it was 83.9 nM. For the same compound, the viability at 24 h, 100 µM in [7] came to 64.7%. Further, the viability at 100 µM with PC-12 [3] is 87%. Also, the viability at 2.5 µM worked out at 44.5% in the series with L02 [12] and 24.6% in the series on SH-SY5Y [8].
As to `Cc1cc(F)cc(NC(=O)Cn2c(-c3nonc3N)nc3ccccc32)c1`, the results for the IC50 at Cholinesterase [1] and against Cholinesterase [4] were 57.8 nM and 453 nM, respectively. Besides, the viability at 24 h, 100 µM in series [7] amounted to 97.5%. Besides, the viability at 100 µM turned out to be 75.8% in the series with PC-12 [3] and 80% in the series on L02 [5]. Besides, the viability at 2.5 µM with SH-SY5Y [8] was determined as 26.3%.
Turning to `Cc1cc(Cl)cc(NC(=O)Cn2c(-c3nonc3N)nc3ccccc32)c1`, the IC50 at Cholinesterase [1] turned out to be 9.16 nM; against Cholinesterase [4], 101 nM. For the same compound, in series [7], the viability at 24 h, 100 µM is 56.3%. The viability at 100 µM was found to be 54.3% in the series with PC-12 [3] and 65.9% with L02 [5]. In the series with SH-SY5Y [8], the viability at 2.5 µM came out at 32.1%.
`Nc1nonc1-c1nc2ccccc2n1CC(=O)Nc1ccc(F)cc1Br`: the IC50 against Cholinesterase [1] stood at 119 nM; at Cholinesterase [4], 35.7 nM. The IC50 at 24 h in series [2] amounted to 0.73 µM. The viability at 100 µM came out at 86.6% with PC-12 [3] and 89% with L02 [5]. In addition, the viability at 2.5 µM in the series on SH-SY5Y [8] was determined as 22.4%.
For the compound `Cc1cc(NC(=O)Cn2c(-c3nonc3N)nc3ccccc32)cc([N+](=O)[O-])c1`, the IC50 in the series on PC-12 [9] stood at 28.8 µM; on Cholinesterase [1], 47.6 nM; at Cholinesterase [4], 278 nM; with SH-SY5Y [6] it was 58.9 µM. In series [7], the viability at 24 h, 100 µM came out at 79.8%. In addition, in the series on L02 [5], the viability at 100 µM was 79.1%.
`Cc1ccc2cc(NC(=O)Cn3c(-c4nonc4N)nc4ccccc43)ccc2n1`: in the series with L02 [5], the viability at 100 µM turned out to be 61.5%.
`Nc1nonc1-c1nc2ccccc2n1CC(=O)Nc1cc([N+](=O)[O-])cc(C(F)(F)F)c1`: the IC50 in the series with PC-12 [9] is 18.1 µM; at Cholinesterase [1] it was 0.35 nM; at Cholinesterase [4] it was 71.6 nM; with SH-SY5Y [6], 15.4 µM. Moreover, in series [7], the viability at 24 h, 100 µM was 57.5%. For the same compound, in the series on L02 [5], the viability at 100 µM came out at 57.5%.
With `COc1cc(NC(=O)Cn2c(-c3nonc3N)nc3ccccc32)cc(OC)c1`, the IC50 against Cholinesterase [1] worked out at 107 nM; against Cholinesterase [4] it was 309 nM. The IC50 at 24 h in [2] worked out at 6.3 µM. Further, the results for the viability at 100 µM with PC-12 [3] and in the series with L02 [5] were 88.8% and 72.8%, respectively. Further, the viability at 2.5 µM with SH-SY5Y [8] came to 24.6%.
Turning to `COc1cc2c(cc1OC)C(=O)C(CC1CCN(Cc3ccccc3)CC1)C2` (centres undefined), the result in the series on Mus musculus [13] and with Mus musculus [14] was Active.
As for `Cc1cc(Br)cc(NC(=O)Cn2c(-c3nonc3N)nc3ccccc32)c1`, the IC50 on Cholinesterase [1] came to 6.38 nM; against Cholinesterase [4] it was 218 nM. For the same compound, in series [7], the viability at 24 h, 100 µM turned out to be 92.6%. Besides, the viability at 100 µM in the series on PC-12 [3] worked out at 58.9%; with L02 [5], 71.4%. In addition, the viability at 2.5 µM in the series with SH-SY5Y [8] came to 31%.
For `Nc1nonc1-c1nc2ccccc2n1CC(=O)Nc1cc(Cl)cc(Cl)c1`, the IC50 worked out at 13.6 µM in the series with PC-12 [9], 4.27 nM against Cholinesterase [1] and 30.4 nM on Cholinesterase [4]. Further, in [7], the viability at 24 h, 100 µM is 52.1%. The viability at 100 µM in the series on L02 [5] stood at 94.2%. In the series on SH-SY5Y [8], the viability at 2.5 µM was 45.8%.
With `Nc1nonc1-c1nc2ccccc2n1CC(=O)Nc1cc(F)cc(Br)c1`, the results for the IC50 at Cholinesterase [1] and against Cholinesterase [4] were 14.3 nM and 62.2 nM, respectively. In addition, the viability at 24 h, 100 µM in series [7] came out at 88.4%. The viability at 100 µM came out at 88.3% in the series with PC-12 [3] and 88.4% in the series on L02 [5]. Besides, the viability at 2.5 µM in the series on SH-SY5Y [8] worked out at 44.2%.
With `Cc1cc(C)cc(NC(=O)Cn2c(-c3nonc3N)nc3ccccc32)c1`, the values for the IC50 at Cholinesterase [1], on Cholinesterase [4] and in the series on SH-SY5Y [6] were 13 nM, 885 nM and 7.5 µM, respectively. Moreover, the viability at 24 h, 100 µM in series [7] was 85.9%. For the same compound, the viability at 100 µM in the series on PC-12 [3] stood at 69.7%; with L02 [5], 85.9%.
